pIC50: −log10 of the molar value.
Columns and labels:
[1] = target: T1, (Homo sapiens, UniProt P08069); test: IGF1R kinase assay (LCCA), IGF 0P; assay type: biochemical; settings: IGF1R kinase LCCA assay
T1 construct: human IGF1R kinase domain residues M954-C1367; made in house; host or cells: baculovirus expression (insect cells)
Experimental: (§1) Kinase activity and compound inhibition are investigated using one or more of the three assay formats described below. The ATP concentrations for each assay are selected to be close to the Michaelis-Menten constant (KM) for each individual kinase. Dose-response experiments are performed at 10 different inhibitor concentrations in a 384-well plate format. […] Y=Min+(Max−Min)/(1+(X/IC50)^H) Equation (2)
(§2) IGF1R kinase biochemical activity was assessed using a Luciferase-Coupled Chemiluminescent Kinase assay (LCCA) format. Kinase activity was measured as the percent ATP remaining following the kinase reaction. Remaining ATP was detected by luciferase-luciferin-coupled chemiluminescence. Specifically, the reaction was initiated by mixing test compounds, 3 μM ATP, 4 μM poly EY peptide and 4 nM IGF1R (baculovirus expressed human IGF1R kinase domain residues M954-C1367) in a 20 uL assay buffer (20 mM Tris-HCL pH7.5, 10 mM MgCl2, 0.02% Triton X-100, 1 mM DTT, 2 mM MnCl2). The mixture is incubated at ambient temperature for 2 hours after which 20 uL luciferase-luciferin mix is added and the chemiluminescent signal read using a Wallac Victor^2 reader.

[2] = target: T2, IGF 3P (Homo sapiens, UniProt P08069); test: IGF1R kinase assay (LCCA), IGF 3P; assay type: biochemical; settings: IGF1R kinase LCCA assay
T2 construct: human IGF1R kinase domain residues M954-C1367; made in house; host or cells: baculovirus expression (insect cells)
Experimental: as §1, §2

T1 sequence (P08069 954-1367): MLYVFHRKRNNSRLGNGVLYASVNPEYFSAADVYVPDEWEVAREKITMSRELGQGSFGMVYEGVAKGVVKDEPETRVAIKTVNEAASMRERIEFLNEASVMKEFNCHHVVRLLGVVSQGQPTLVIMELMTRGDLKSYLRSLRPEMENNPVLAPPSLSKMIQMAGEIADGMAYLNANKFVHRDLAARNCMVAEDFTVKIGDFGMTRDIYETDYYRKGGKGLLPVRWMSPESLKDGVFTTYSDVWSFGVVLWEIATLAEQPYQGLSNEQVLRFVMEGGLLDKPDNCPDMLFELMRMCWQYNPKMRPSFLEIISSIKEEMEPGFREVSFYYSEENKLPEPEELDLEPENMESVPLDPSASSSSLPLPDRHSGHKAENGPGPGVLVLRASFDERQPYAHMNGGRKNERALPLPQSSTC
T2 sequence (P08069 954-1367): as above

SMILES	pIC50 [1]	pIC50 [2]	pIC50 ([1]; IGF 0P)	pIC50 ([2]; IGF 3P)
Brc1cnc(NC2CCc3ccccc32)nc1Nc1cc(C2CC2)[nH]n1 (stereo not drawn) [Example 25]	6.30 to 7.30	5.30 to 6.30		
CN(C)C(=O)Oc1cccc(Nc2ncc(Br)c(Nc3cc(C4CC4)n[nH]3)n2)c1 [Example 35]	6.30 to 7.30	6.30 to 7.30		
CN1CCN(C(=O)Cc2ccc(Nc3ncc(Br)c(Nc4cc(C5CC5)n[nH]4)n3)cc2)CC1 [Example 37]	5.30 to 6.30	6.30 to 7.30		
Cc1cc(Nc2cc(C3CC3)n[nH]2)nc(Nc2ccc3cc(C(=O)NCCN4CCCC4)ccc3c2)n1 [Example 49]	6.30 to 7.30	> 7.30		
Cc1cc(Nc2cc(C3CC3)n[nH]2)nc(Nc2ccc(CCC(=O)NCCCN3CCCCC3)cc2)n1 [Example 51]	< 5.30	> 7.30		
COc1cc(Nc2ncc(Br)c(Nc3cc(C)on3)n2)cc(OC)c1 [Example 53]	6.30 to 7.30	> 7.30		
CCN(CC)CCNC(=O)CCc1ccc(Nc2ncc(Br)c(Nc3cc(C)on3)n2)cc1 [Example 58]			5.30 to 6.30	> 7.30
CCN(CC)CCNC(=O)c1ccc2cc(Nc3nc(C)cc(Nc4cc(C5CC5)n[nH]4)n3)ccc2c1 [Example 59]	6.30 to 7.30	> 7.30		
CCN(CC)CCCNc1nc(Nc2ccccc2Cl)nc(Nc2cc(C3CC3)n[nH]2)c1Cl [Example 66]	6.30 to 7.30	> 7.30		
Brc1cnc(Nc2ccc(N3CCOCC3)cc2)nc1Nc1cc(-c2ccco2)[nH]n1 [Example 80]	6.30 to 7.30	6.30 to 7.30		
Brc1cnc(Nc2ccc(N3CCOCC3)nc2)nc1Nc1cc(C2CC2)n[nH]1 [Example 81]	5.30 to 6.30	6.30 to 7.30		
Cc1cc(Nc2cc(C3CC3)[nH]n2)nc(NCc2cc(C3CCCCC3)no2)n1 [Example 82]	6.30 to 7.30	6.30 to 7.30		
CN1CCN(C(=O)CCc2ccc(Nc3ncc(Br)c(Nc4cc(C5CC5)[nH]n4)n3)cc2)CC1 [Example 85]	5.30 to 6.30	6.30 to 7.30		
CC(C)(C)OC(=O)NCc1ccc(Nc2ncc(Br)c(Nc3cc(C4CC4)[nH]n3)n2)cc1 [Example 92]	6.30 to 7.30	6.30 to 7.30		
CN1CCN(C(=O)CCc2cccc(Nc3ncc(Br)c(Nc4cc(C5CC5)n[nH]4)n3)c2)CC1 [Example 100]	5.30 to 6.30	6.30 to 7.30		
Clc1ccccc1Nc1ncc(Cl)c(Nc2cc(C3CC3)[nH]n2)n1 [Example 101]	6.30 to 7.30	6.30 to 7.30		
CCN(CC)CCCNC(=O)CCc1cccc(Nc2ncc(Br)c(Nc3cc(C4CC4)n[nH]3)n2)c1 [Example 107]	5.30 to 6.30	6.30 to 7.30		
Cc1cc(Nc2cc(C3CC3)n[nH]2)nc(Nc2ccc(CCC(=O)N(C)C)cc2)n1 [Example 111]	5.30 to 6.30	6.30 to 7.30		
Cc1cc(Nc2ccnc(Nc3ccc(N4CCOCC4)cc3)n2)no1 [Example 113]	5.30 to 6.30	6.30 to 7.30		
N#Cc1ccc(Nc2ncc(Cl)c(Nc3cc(C4CC4)[nH]n3)n2)cc1 [Example 117]	6.30 to 7.30	6.30 to 7.30		
CN1CCN(C(=O)c2ccc(Nc3ncc(Br)c(Nc4cc(C5CC5)n[nH]4)n3)cc2)CC1 [Example 124]	5.30 to 6.30	6.30 to 7.30		
Cc1cc(Nc2cc(C3CC3)n[nH]2)nc(Nc2ccc(CC#N)cc2)n1 [Example 125]	6.30 to 7.30	6.30 to 7.30		
CN1CCN(C(=O)c2cccc(Nc3ncc(Br)c(Nc4cc(C5CC5)n[nH]4)n3)c2)CC1 [Example 128]	5.30 to 6.30	6.30 to 7.30		
c1cc(Nc2cc(C3CC3)[nH]n2)nc(NCc2cc(C3CCCCC3)no2)n1 [Example 129]	5.30 to 6.30	6.30 to 7.30		

Further lines, results first:

pIC50 [1]	pIC50 [2]	pIC50 ([1]; IGF 0P)	pIC50 ([2]; IGF 3P)	SMILES
6.30 to 7.30	6.30 to 7.30			CC(C)c1cc(Nc2nc(NCc3cc(-c4ccccc4)no3)ncc2Br)[nH]n1 [Example 10]
6.30 to 7.30	6.30 to 7.30			c1ccc(-c2cc(CNc3nc(Nc4cc(C5CC5)n[nH]4)cc(N4CCCC4)n3)on2)cc1 [Example 12]
6.30 to 7.30	6.30 to 7.30			Brc1cnc(NCc2cc(-c3ccccc3)no2)nc1Nc1cc(C2CC2)[nH]n1 [Example 14]
6.30 to 7.30	5.30 to 6.30			CC(C)(C)c1cc(Nc2nc(NCc3cc(-c4ccccc4)no3)ncc2Br)n[nH]1 [Example 16]
5.30 to 6.30	5.30 to 6.30			Cc1cc(Nc2nc(NCc3cc(-c4ccccc4)no3)ncc2Br)[nH]n1 [Example 19]
6.30 to 7.30	5.30 to 6.30			Brc1cnc(NC2CCCc3ccccc32)nc1Nc1cc(C2CC2)[nH]n1 (stereo not drawn) [Example 34]
6.30 to 7.30	> 7.30			CCN(CC)CCCNc1cc(Nc2cc(C3CC3)[nH]n2)nc(NCc2cc(-c3ccccc3)no2)n1 [Example 42]
> 7.30	> 7.30			CCN(CC)CCNc1cc(Nc2cc(C3CC3)[nH]n2)nc(NCc2cc(-c3ccccc3)no2)n1 [Example 45]
5.30 to 6.30	> 7.30			Cc1cc(Nc2cc(C3CC3)[nH]n2)nc(NCc2cc(C(C)C)no2)n1 [Example 50]
5.30 to 6.30	> 7.30			CC(=O)Nc1ccc(Cl)c(Nc2ncc(Br)c(Nc3cc(C)on3)n2)c1 [Example 57]
5.30 to 6.30	> 7.30			CC(C)c1cc(CNc2ncc(Br)c(Nc3cc(C4CC4)[nH]n3)n2)on1 [Example 65]
5.30 to 6.30	6.30 to 7.30			Brc1cc(CNc2ncc(Br)c(Nc3cc(C4CC4)[nH]n3)n2)on1 [Example 72]
6.30 to 7.30	6.30 to 7.30			CN(C)C(=O)CCc1ccc(Nc2ncc(Br)c(Nc3cc(C4CC4)n[nH]3)n2)cc1 [Example 76]
6.30 to 7.30	6.30 to 7.30			Brc1ccccc1Nc1ncc(Br)c(Nc2cc(C3CC3)n[nH]2)n1 [Example 83]
6.30 to 7.30	6.30 to 7.30			FC(F)(F)Oc1ccccc1Nc1ncc(Br)c(Nc2cc(C3CC3)n[nH]2)n1 [Example 84]
5.30 to 6.30	6.30 to 7.30			Cc1cc(Nc2nc(Nc3ccccc3)ncc2Br)[nH]n1 [Example 90]
6.30 to 7.30	6.30 to 7.30			NS(=O)(=O)c1ccc(Nc2ncc(Br)c(Nc3cc(C4CC4)n[nH]3)n2)cc1 [Example 91]
6.30 to 7.30	6.30 to 7.30			Cc1c(Br)cccc1Nc1ncc(Br)c(Nc2cc(C3CC3)[nH]n2)n1 [Example 95]
6.30 to 7.30	6.30 to 7.30			Brc1cnc(Nc2ccccc2I)nc1Nc1cc(C2CC2)n[nH]1 [Example 96]
6.30 to 7.30	6.30 to 7.30			Brc1cnc(Nc2ccc3c(c2)OCCO3)nc1Nc1cc(C2CC2)n[nH]1 [Example 104]
6.30 to 7.30	6.30 to 7.30			CN(C)c1cc(Nc2cc(C3CC3)[nH]n2)nc(NCc2cc(-c3ccccc3)no2)n1 [Example 110]
5.30 to 6.30	6.30 to 7.30			CC(C)(C)c1cc(Nc2nc(Nc3ccccc3)ncc2Br)n[nH]1 [Example 116]
5.30 to 6.30	6.30 to 7.30			CC(C)CNc1ncc(Br)c(Nc2cc(C3CC3)[nH]n2)n1 [Example 118]
6.30 to 7.30	6.30 to 7.30			Fc1ccc(Nc2ncc(Br)c(Nc3cc(C4CC4)n[nH]3)n2)c(Br)c1 [Example 121]
6.30 to 7.30	6.30 to 7.30			Brc1cnc(Nc2cccc3ccccc23)nc1Nc1cc(C2CC2)[nH]n1 [Example 130]
5.30 to 6.30	6.30 to 7.30			CSc1ccccc1Nc1ncc(Br)c(Nc2cc(C3CC3)n[nH]2)n1 [Example 131]
6.30 to 7.30	6.30 to 7.30			Brc1cnc(Nc2ccc3[nH]ccc3c2)nc1Nc1cc(C2CC2)n[nH]1 [Example 132]
